Data: US4757064A, “Pharmacologically active bicyclic lactams” (Bayer Aktiengesellschaft, priority 1986, dated 1988)

Key:
[1] = animal tests; isolated from Clausena Pentaphylla (Roxb.); cited from earlier work
CCl4 intoxicated mice = experiment: Hepatoprotective action in CCl4 intoxicated mice (SGPT); type: in vivo, Male Kunming strain mice
Procedure: Male Kunming strain mice weighing 18-22 grams were used throughout the experiments. The compounds to be tested were suspended in 5% Tween 80 and given orally by gavage. The vehicle of 5% Tween 80 solution was administered to control mice via the same route. In in vitro experiments, the compounds were dissolved in dimethylformamide and added directly into the incubation mixture.
Mice were divided into several groups. The control group was administered the vehicle. The other groups were given two doses (250 mg/kg) of compound (I, R=H), at an interval of 8 h, respectively. 10 ml/kg of 0.1% CCl4 in vegetable oil was injected ip 24 h after the second administration of the compound. The mice were fasted for 16 h and sacrificed by decapitation. SGPT and liver lipids were determined. A piece of liver was processed into sections for pathological observation.

[2] = system: retrograde amnesia (rat) under hypoxic conditions; experiment: Retrograde amnesia under hypoxic conditions (passive avoidance, dark compartment, foot shock); type: in vivo, Male rats; settings: 100 mg/kg p.o.; 3.8% oxygen and 96.2% nitrogen; retest after 24 hours; groups of 15
Description: Influence of the compound (I, R=H) on retrograde amnesia (rat) under hypoxic conditions.
The apparatus (39 cm long, 21 cm high, and 21 cm wide) consists of two compartments, one made of translucent plastic (29 cm long) and the other one painted black (10 cm long). It has a bottom of spaced metal grids which are connected to a stimulating device delivering 1.6 mA for 20 s.
Both compartments are connected via a door which can be closed.
Male rats (100-120 g body weight) will be placed individually in the large compartment and allowed to explore both compartments for 3 min.
Thereafter, the animals are placed in the small (dark) compartment, the connecting door is closed and the foot shock is delivered. After that the animals are put in an air-tight cage which is perfused by a gas mixture containing 3.8% oxygen and 96.2% nitrogen.
24 hours later the rats are placed again in the bright compartment. The observation time is 3 min.
One experiment is performed in three groups of 15 animals each:
Group A: control group, not exposed to hypoxia
Group B: control group, receiving hypoxia after first training
Group C: treated animals, receiving hypoxia after first training
Evaluation: the times the animals need to enter the dark compartment are measured in seconds. […]
The time difference between the control group B and the treated group C is calculated in percent (C-B=X%). […]

Row | SMILES | spasmolytic activity (in words) [1] | SGPT, X ± SE (CCl4 intoxicated mice; 250 mg/kg × 2, 8 h interval, oral by gavage, 10 ml/kg of 0.1% CCl4 ip 24 h after second dose, 9 per group, control 2270 ± 284, P <0.01) | effect on elevated SGPT (in words) (CCl4 intoxicated mice; mice intoxicated with CCl4) | X, antiamnestic effect (C-B, with A-B=100%) [2]
1 | C=CC(C)(C)c1cc2cc3c(cc2oc1=O)OC1(C)CCC(C(C)(C)O)OC1C3 (stereo not shown) [Clausmarins A] | showed spasmolytic activity | – | – | –
2 | CN1C=Cc2ccccc2C(c2ccccc2)C(O)C1=O (stereo not shown) [Compound (I, R = H)] | – | 617 ± 166 unit % | significantly decreased the elevated SGPT | 34%
